Earlier results on one molecule are cited in patent US20110301131A1, “Drug Delivery Implants and Processes for Their Preparation” (priority 2008, published 2011).

The conditions of the data set: bupivacaine used in regional anaesthesia.

In the case of `CCCCN1CCCCC1C(=O)Nc1c(C)cccc1C` (stereo not shown) [bupivacaine], the Half-life entry is listed as “about 3 hours”.
